According to ChEMBL document CHEMBL3885861, “Open TG-GATES”:

Species: Rattus norvegicus
Experiment: Open TG-GATES - Regimen: Daily Repeat
Format: toxicity, organism-based, Sprague-Dawley
Parameters: regimen Daily Repeat, gender Male, age 6 weeks
Conditions: in vivo, po, 10 mg/kg, route gavage, dose level Middle; for APTT / Bas / Eos / Fbg / Hb / Ht / Lym / MCH / MCHC / MCV / Mono / Neu / PT / Plat / RBC / Ret / WBC: tissue Blood; for KIDNEY_L / KIDNEY_R / KIDNEY_TOTAL: tissue Kidney; for LIVER: tissue Liver; for A/G / ALP / ALT / AST / BUN / CRE / Ca / Cl / DBIL / GLC / IP / K / LDH / Na / PL / RALB / TBIL / TC / TG / TP / gamma-GTP: tissue Plasma

In the case of `C=CCO` [ALLYL ALCOHOL], the TERMINAL_BW (72 h, time 3 day) is reported as 233.1 g, the APTT (72 h, time 3 day) is reported as 20.8 s and the Bas (72 h, time 3 day) is reported as 0%. It also gave an Eos (72 h, time 3 day) of 0.6%, a Fbg (72 h, time 3 day) of 233.2 mg/dL and a Hb (72 h, time 3 day) of 13.9 g/dL. For the same compound, the Ht (72 h, time 3 day) was 40.8%, the Lym (72 h, time 3 day) was 77.4% and the MCH (72 h, time 3 day) was 20.6 pg. The MCHC (72 h, time 3 day) was 33.9%, the MCV (72 h, time 3 day) was 60.7 fL and the Mono (72 h, time 3 day) was 3.6%. For the same compound, the Neu (72 h, time 3 day) was 17.8%, the PT (72 h, time 3 day) was 11.7 s and the Plat (72 h, time 3 day) was 133.2 x10_4/uL. It also gave an RBC (72 h, time 3 day) of 672.8 x10_4/ul, a Ret (72 h, time 3 day) of 5.1% and a WBC (72 h, time 3 day) of 116 x10_2/uL. The KIDNEY_L (72 h, time 3 day) was 1 g, the KIDNEY_R (72 h, time 3 day) was 1 g and the KIDNEY_TOTAL (72 h, time 3 day) was 2.1 g. The LIVER (72 h, time 3 day) was 11.2 g, the A/G (72 h, time 3 day) was 1.6 and the ALP (72 h, time 3 day) was 921.4 IU/L. For the same compound, the ALT (72 h, time 3 day) was 35.2 IU/L, the AST (72 h, time 3 day) was 67.6 IU/L and the BUN (72 h, time 3 day) was 14 mg/dL. It also gave a CRE (72 h, time 3 day) of 0.4 mg/dL, a Ca (72 h, time 3 day) of 10.7 mg/dL and a Cl (72 h, time 3 day) of 103 meq/L. The DBIL (72 h, time 3 day) was 0.066 mg/dL, the GLC (72 h, time 3 day) was 207.8 mg/dL and the IP (72 h, time 3 day) was 6.6 mg/dL. For the same compound, the K (72 h, time 3 day) was 3.9 meq/L, the LDH (72 h, time 3 day) was 226 IU/L and the Na (72 h, time 3 day) was 140.2 meq/L. The PL (72 h, time 3 day) was 142 mg/dL, the RALB (72 h, time 3 day) was 3.3 g/dL and the TBIL (72 h, time 3 day) was 0.1 mg/dL. For the same compound, the TC (72 h, time 3 day) was 78 mg/dL, the TG (72 h, time 3 day) was 78 mg/dL and the TP (72 h, time 3 day) was 5.3 g/dL. It also gave a gamma-GTP (72 h, time 3 day) of 1 IU/L, a TERMINAL_BW ([…], time 7 day) of 267.6 g and a TERMINAL_BW ([…], time 14 day) of 329.3 g. For the same compound, the TERMINAL_BW ([…], time 28 day) was 403.7 g, the APTT ([…], time 7 day) was 18.2 s and the Bas ([…], time 7 day) was 0%. For the same compound, the Eos ([…], time 7 day) was 0.8%, the Fbg ([…], time 7 day) was 219 mg/dL and the Hb ([…], time 7 day) was 13.5 g/dL. It also gave a Ht ([…], time 7 day) of 39.7%, a Lym ([…], time 7 day) of 82.6% and an MCH ([…], time 7 day) of 20.5 pg. It also gave an MCHC ([…], time 7 day) of 34%, an MCV ([…], time 7 day) of 60.2 fL and a Mono ([…], time 7 day) of 2.6%. For the same compound, the Neu ([…], time 7 day) was 13.4%, the PT ([…], time 7 day) was 12 s and the Plat ([…], time 7 day) was 137.3 x10_4/uL. The RBC ([…], time 7 day) was 661 x10_4/ul, the Ret ([…], time 7 day) was 4.5% and the WBC ([…], time 7 day) was 128.8 x10_2/uL. It also gave an APTT ([…], time 14 day) of 19.2 s, a Bas ([…], time 14 day) of 0% and an Eos ([…], time 14 day) of 1%. For the same compound, the Fbg ([…], time 14 day) was 225.8 mg/dL, the Hb ([…], time 14 day) was 14.3 g/dL and the Ht ([…], time 14 day) was 41.2%. It also gave a Lym ([…], time 14 day) of 77.8%, an MCH ([…], time 14 day) of 20.4 pg and an MCHC ([…], time 14 day) of 34.7%. The MCV ([…], time 14 day) was 58.8 fL, the Mono ([…], time 14 day) was 3% and the Neu ([…], time 14 day) was 17.8%. For the same compound, the PT ([…], time 14 day) was 11.8 s, the Plat ([…], time 14 day) was 134 x10_4/uL and the RBC ([…], time 14 day) was 700.4 x10_4/ul. It also gave a Ret ([…], time 14 day) of 4.5%, a WBC ([…], time 14 day) of 123.8 x10_2/uL and an APTT ([…], time 28 day) of 20 s. It also gave a Bas ([…], time 28 day) of 0%, an Eos ([…], time 28 day) of 1% and a Fbg ([…], time 28 day) of 225.2 mg/dL. The Hb ([…], time 28 day) was 15.2 g/dL, the Ht ([…], time 28 day) was 44% and the Lym ([…], time 28 day) was 80.8%. The MCH ([…], time 28 day) was 19.6 pg, the MCHC ([…], time 28 day) was 34.5% and the MCV ([…], time 28 day) was 57 fL. It also gave a Mono ([…], time 28 day) of 1.6%, a Neu ([…], time 28 day) of 15.6% and a PT ([…], time 28 day) of 12 s. The Plat ([…], time 28 day) was 108.6 x10_4/uL, the RBC ([…], time 28 day) was 772.6 x10_4/ul and the Ret ([…], time 28 day) was 3%. The WBC ([…], time 28 day) was 116.6 x10_2/uL, the KIDNEY_L ([…], time 7 day) was 1.1 g and the KIDNEY_R ([…], time 7 day) was 1.1 g. It also gave a KIDNEY_TOTAL ([…], time 7 day) of 2.2 g, a KIDNEY_L ([…], time 14 day) of 1.3 g and a KIDNEY_R ([…], time 14 day) of 1.3 g. The KIDNEY_TOTAL ([…], time 14 day) was 2.6 g, the KIDNEY_L ([…], time 28 day) was 1.4 g and the KIDNEY_R ([…], time 28 day) was 1.4 g. The KIDNEY_TOTAL ([…], time 28 day) was 2.8 g, the LIVER ([…], time 7 day) was 12.3 g and the LIVER ([…], time 14 day) was 15 g. The LIVER ([…], time 28 day) was 17.1 g, the A/G ([…], time 7 day) was 1.5 and the ALP ([…], time 7 day) was 970.4 IU/L. It also gave an ALT ([…], time 7 day) of 36 IU/L, an AST ([…], time 7 day) of 66 IU/L and a BUN ([…], time 7 day) of 14.4 mg/dL. It also gave a CRE ([…], time 7 day) of 0.4 mg/dL, a Ca ([…], time 7 day) of 10.8 mg/dL and a Cl ([…], time 7 day) of 102.2 meq/L. For the same compound, the DBIL ([…], time 7 day) was 0.06 mg/dL, the GLC ([…], time 7 day) was 202.6 mg/dL and the IP ([…], time 7 day) was 6.7 mg/dL. For the same compound, the K ([…], time 7 day) was 3.8 meq/L, the LDH ([…], time 7 day) was 205.8 IU/L and the Na ([…], time 7 day) was 140.8 meq/L. The PL ([…], time 7 day) was 143.4 mg/dL, the RALB ([…], time 7 day) was 3.3 g/dL and the TBIL ([…], time 7 day) was 0.1 mg/dL. It also gave a TC ([…], time 7 day) of 73.8 mg/dL, a TG ([…], time 7 day) of 75.6 mg/dL and a TP ([…], time 7 day) of 5.5 g/dL. For the same compound, the gamma-GTP ([…], time 7 day) was 0.8 IU/L, the A/G ([…], time 14 day) was 1.4 and the ALP ([…], time 14 day) was 736 IU/L. The ALT ([…], time 14 day) was 33.8 IU/L, the AST ([…], time 14 day) was 59.6 IU/L and the BUN ([…], time 14 day) was 15.8 mg/dL. It also gave a CRE ([…], time 14 day) of 0.4 mg/dL, a Ca ([…], time 14 day) of 10.7 mg/dL and a Cl ([…], time 14 day) of 100.8 meq/L. The DBIL ([…], time 14 day) was 0.076 mg/dL, the GLC ([…], time 14 day) was 232.4 mg/dL and the IP ([…], time 14 day) was 6.6 mg/dL. The K ([…], time 14 day) was 3.5 meq/L, the LDH ([…], time 14 day) was 211.4 IU/L and the Na ([…], time 14 day) was 139.8 meq/L. For the same compound, the PL ([…], time 14 day) was 148.8 mg/dL, the RALB ([…], time 14 day) was 3.3 g/dL and the TBIL ([…], time 14 day) was 0.1 mg/dL. For the same compound, the TC ([…], time 14 day) was 74 mg/dL, the TG ([…], time 14 day) was 110.4 mg/dL and the TP ([…], time 14 day) was 5.7 g/dL. For the same compound, the gamma-GTP ([…], time 14 day) was 1 IU/L, the A/G ([…], time 28 day) was 1.4 and the ALP ([…], time 28 day) was 568 IU/L. For the same compound, the ALT ([…], time 28 day) was 33.6 IU/L, the AST ([…], time 28 day) was 60.2 IU/L and the BUN ([…], time 28 day) was 15.6 mg/dL. It also gave a CRE ([…], time 28 day) of 0.5 mg/dL, a Ca ([…], time 28 day) of 10.7 mg/dL and a Cl ([…], time 28 day) of 102.6 meq/L. The DBIL ([…], time 28 day) was 0.084 mg/dL, the GLC ([…], time 28 day) was 221 mg/dL and the IP ([…], time 28 day) was 6 mg/dL. For the same compound, the K ([…], time 28 day) was 3.6 meq/L, the LDH ([…], time 28 day) was 205.2 IU/L and the Na ([…], time 28 day) was 140.6 meq/L. It also gave a PL ([…], time 28 day) of 142.4 mg/dL, an RALB ([…], time 28 day) of 3.6 g/dL and a TBIL ([…], time 28 day) of 0.1 mg/dL. The TC ([…], time 28 day) was 70.8 mg/dL, the TG ([…], time 28 day) was 104.6 mg/dL and the TP ([…], time 28 day) was 6.2 g/dL. It also gave a gamma-GTP ([…], time 28 day) of 1 IU/L.
